4 molecules from article PMC7357490, “Ancestral Resurrection and Directed Evolution of Fungal Mesozoic Laccases” (Applied and Environmental Microbiology, 2020) can be followed below.

The test system of test [1] is LacAnc100. Nature of the test: spectrophotometric steady-state kinetics, […] nm. The class given is biochemical, synthetic construct. Particulars: room temperature; 100 mM sodium phosphate/citrate pH 5.0; air O2 as co-substrate.
In test [2] the test system is LacAnc98. The test is described as follows: spectrophotometric steady-state kinetics, […] nm. Type of test: biochemical, synthetic construct. Particulars: room temperature; 100 mM sodium phosphate/citrate pH 5.0; air O2 as co-substrate.
The target in test [3] is T1, OB-1 (basidiomycete PM1, UniProt Q12571, V183A/H229Y/S245G/A260P/D302E/S447N/A482T, form not given).
T1 construct: N-terminal extension from leader processing (EAEA site) possible
T1 sequence (Q12571 entry or part of it V183A/H229Y/S245G/A260P/D302E/S447N/A482T, form open): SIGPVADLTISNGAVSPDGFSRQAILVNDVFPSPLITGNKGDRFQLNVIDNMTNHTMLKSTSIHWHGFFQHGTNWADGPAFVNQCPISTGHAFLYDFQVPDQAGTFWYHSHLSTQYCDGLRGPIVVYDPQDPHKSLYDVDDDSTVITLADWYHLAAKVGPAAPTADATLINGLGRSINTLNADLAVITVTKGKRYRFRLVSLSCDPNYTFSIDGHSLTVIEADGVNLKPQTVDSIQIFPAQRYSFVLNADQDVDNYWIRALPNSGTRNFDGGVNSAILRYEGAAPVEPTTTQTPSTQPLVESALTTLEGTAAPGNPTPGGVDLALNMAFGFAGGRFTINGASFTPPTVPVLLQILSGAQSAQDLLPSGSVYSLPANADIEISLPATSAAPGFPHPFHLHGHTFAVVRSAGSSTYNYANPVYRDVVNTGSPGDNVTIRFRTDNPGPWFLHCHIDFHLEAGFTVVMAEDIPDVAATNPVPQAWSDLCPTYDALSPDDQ
Nature of the test: spectrophotometric steady-state kinetics, […] nm. Particulars: room temperature; 100 mM sodium phosphate/citrate pH 5.0; air O2 as co-substrate. Type of test: biochemical.

The test system of test [4] is LacAnc100. Nature of the test: spectrophotometric steady-state kinetics, […] nm. Type of test: biochemical, synthetic construct. Particulars: room temperature; 100 mM sodium phosphate/citrate pH 5.0; air O2 as co-substrate. This is another data set of the same source.
Test [5] has as its system LacAnc98. The test is described as follows: spectrophotometric steady-state kinetics, […] nm. Type of test: biochemical, synthetic construct. The conditions noted are these: room temperature; 100 mM sodium phosphate/citrate pH 5.0; air O2 as co-substrate. This is another data set of the same source.
Test [6] deals with T1, OB-1. The test is described as follows: spectrophotometric steady-state kinetics, […] nm. The class given is biochemical. Particulars: room temperature; 100 mM sodium phosphate/citrate pH 5.0; air O2 as co-substrate. This is another data set of the same source.
Test [7] deals with LacAnc100. Particulars: read-out: LacAnc100; room temperature; 100 mM sodium phosphate/citrate pH 4.0; air O2 as co-substrate.
The test system of test [8] is LacAnc98. The conditions noted are these: read-out: LacAnc98; room temperature; 100 mM sodium phosphate/citrate pH 4.0; air O2 as co-substrate.
For test [9], the target named is T1, OB-1. Nature of the test: spectrophotometric steady-state kinetics, […] nm. Type of test: biochemical. The conditions noted are these: room temperature; 100 mM sodium phosphate/citrate pH 5.0; air O2 as co-substrate. This is another data set of the same source.
The test system of test [10] is LacAnc98. The test is described as follows: spectrophotometric steady-state kinetics, […] nm. The conditions noted are these: room temperature; 100 mM sodium phosphate/citrate pH 5.0; air O2 as co-substrate. The class given is biochemical, synthetic construct. The source holds these as a separate data set.
The test system of test [11] is LacAnc100. Nature of the test: spectrophotometric steady-state kinetics, […] nm. Type of test: biochemical, synthetic construct. The conditions noted are these: room temperature; 100 mM sodium phosphate/citrate pH 5.0; air O2 as co-substrate. This is another data set of the same source.

Like-named read-outs stand apart in the source and are kept apart here.

As to `COc1ccccc1O` [Guaiacol], the Km worked out at 6700 ± 700 µM in [1], 8700 ± 300 µM in [2] and 2600 ± 400 µM in test [3].

Regarding `COc1cccc(OC)c1O` [DMP], the results for the Km in test [4], in test [5] and in [6] were 500 ± 20 µM, 420 ± 20 µM and 150 ± 10 µM, respectively.

As to `CCn1c(=NN=c2sc3cc(S(=O)(=O)O)ccc3n2CC)sc2cc(S(=O)(=O)O)ccc21` [ABTS], the figures for the Km in [7] and in test [8] were 60 ± 1 µM and 69 ± 2 µM, respectively.

In the case of `COc1cc(/C=C/C(=O)O)cc(OC)c1O` [Sinapic acid], the figures for the Km in [9], in [10] and in test [11] were 320 ± 20 µM, 230 ± 40 µM and 330 ± 70 µM, respectively.
